Assays:
Macular Degeneration = conditions: chronic use; cited from earlier work
dry macular degeneration = assay: Patient with dry macular degeneration: one eye treated, other eye left untreated; assay type: in vivo, human
Description: (§1) A patient is diagnosed with dry macular degeneration. A composition comprising the calcium channel blocker nifedipine is directly applied to the vitreous surface of one eye while the other eye is left untreated. […] A patient is diagnosed with dry macular degeneration. A composition comprising the ACE inhibitor enalapril is directly applied to the vitreous surface of one eye while the other eye is left untreated. […] A patient is diagnosed with dry macular degeneration. A composition comprising the angiotensin receptor blocker losartan is directly applied to the vitreous surface of one eye while the other eye is left untreated. […] A patient is diagnosed with dry macular degeneration. A composition comprising the calcium channel blocker nifedipine is directly injected into the intraocular space of one eye while the other eye is left untreated. […] A patient is diagnosed with dry macular degeneration. A composition comprising the ACE inhibitor enalapril is directly injected into the intraocular space of one eye while the other eye is left untreated. […] A patient is diagnosed with dry macular degeneration. A composition comprising the angiotensin receptor blocker losartan is directly injected into the intraocular space of one eye while the other eye is left untreated.

wet macular degeneration = assay: Patient with wet macular degeneration: one eye treated, other eye left untreated; assay type: in vivo, human
Description: as §1, with “wet” for “dry”

[1] = in vivo; cited from earlier work
[2] = composition directly applied to the vitreous surface of one eye
[3] = composition directly injected into the intraocular space of one eye

| Compound | symptoms of dry macular degeneration, treated eye versus untreated eye (dry macular degeneration; [2]) | symptoms of dry macular degeneration, treated eye versus untreated eye (dry macular degeneration; [3]) | symptoms of wet macular degeneration, treated eye versus untreated eye (wet macular degeneration; [2]) | symptoms of wet macular degeneration, treated eye versus untreated eye (wet macular degeneration; [3]) | further results |
| --- | --- | --- | --- | --- | --- |
| CC(=O)Oc1ccccc1C(=O)O [aspirin] |  |  |  |  | association with Macular Degeneration (Macular Degeneration): increase in Macular Degeneration |
| CCCCc1nc(Cl)c(CO)n1Cc1ccc(-c2ccccc2-c2nn[nH]n2)cc1 [losartan] | reduced symptoms of dry macular degeneration | reduced symptoms of dry macular degeneration | reduced symptoms of wet macular degeneration | reduced symptoms of wet macular degeneration |  |
| tocopherol |  |  |  |  | all-cause mortality [1]: increase in all-cause mortality |
| CC1=C(/C=C/C(C)=C/C=C/C(C)=C/C=C/C=C(C)/C=C/C=C(C)/C=C/C2=C(C)CCCC2(C)C)C(C)(C)CCC1 [Beta carotene, beta carotene] |  |  |  |  | lung cancer [1]: increase lung cancer |
| CCOC(=O)[C@H](CCc1ccccc1)N[C@@H](C)C(=O)N1CCC[C@H]1C(=O)O [enalapril] | reduced symptoms of dry macular degeneration | reduced symptoms of dry macular degeneration | reduced symptoms of wet macular degeneration | reduced symptoms of wet macular degeneration |  |

From patent US11426394B2, “Method to prevent and treat macular degeneration by calcium channel blockers, angiotensin converting enzyme inhibitors, and angiotensin receptor blockers” (priority 2018, dated 2022)
